According to patent US20230097753A1, “ALPHA-HYDROXYLATED FATTY-ACID METABOLITES, MEDICAL USES AND USE AS BIOMARKERS” (UNIVERSITAT DE LES ILLES BALEARS, priority 2020, published 2023):

Tests used:
HEK293T cells = assay: Metabolic conversion and uptake of 2-hydroxylated fatty acids in HEK293T cell cultures; format: in vitro ADME, human; conditions: HEK293T; for Formation of the metabolite from its 2-hydroxylated prodrug in the presence of oxythiamine: prodrug 100 μM, 24 h, 10 mM oxythiamine
Description: To describe the metabolic conversion of DHA-H to HPA(C21:5 ω-3), as well as the conversion of LA-H to HDA (C17:2 ω-6), ALA-H to HTA ω-3 (C17:3 ω-3), GLA-H to HTA ω-6 (C17:3 ω-6), ARA-H to NTA (C19:4 ω-6), EPA-H to NPA (C19:5 ω-3), HEK293T (Human Embryonic Kidney Cells 293T) cell cultures were employed, which is an embryonic, non-tumoral cell line, widely used in human metabolism studies under physiological conditions.
HEK293T cells were cultured in Dulbecco's Modified Eagle's Medium (DMEM; Dubelcco's Modified Eagle's Medium, Biowest, France), supplemented with 10% FBS (Fetal Bovine Serum; Gibco, Thermo-Fisher), 2 mM L-Gln, 25 mM D(+)-glucose, 1 mM sodium pyruvate, and penicillin/streptomycin. Mouse neuroblastoma N2a cells were maintained in a 1:1 (v:v) mixture of DMEM and Opti-Mem (Gibco, Thermo-Fisher), supplemented with 5% FBS and penicillin/streptomycin. Both cell lines were incubated in an atmosphere of 5% CO2 at 37° C.
HEK293T cells were incubated with DHA-H and DHA at 10, 30 and 100 μM for 24 hours, and at 30 μM for 6, 48 and 72 hours. These cells were also incubated with LA-H, ALA-H, GLA-H, ARA-H and EPA-H at 100 μM for 24 hours. HEK293T cells were also incubated with oxythiamine in the presence of DHA-H under the same conditions, at final oxythiamine concentrations of 1 and 10 mM. The HEK293T cells were separated from the plates by pipettes with cold phosphate buffer saline solution (PBS). Cells were recovered by centrifugation (1000 xg, 10 min at 4° C.) and washed twice with cold PBS before being frozen at −80° C. To analyze DHA-H and DHA levels in the cell culture medium, 90 mm diameter plates were filled with 11 mL of complete cell culture medium containing 30 μM DHA-H or DHA in the presence or absence of attached HEK293T cells (5.10^5 cells/plate). The plates were incubated as described above and 1 ml aliquots of the plates were collected at 0, 6, 24, 48 and 72 hours. Aliquots of the cell culture medium were immediately centrifuged at 1000×g for 10 min at 4° C. to remove any cell suspension and the cell-free aliquots were stored at -20° C.
The cell lysates were subjected to ultrasound pulses (4 cycles, 10 s/cycle, 10 W) before lipid extraction. For brain analysis, the tissue of each animal was homogenized in cold PBS at 1:10 (p:v) in the presence of protease inhibitors (Roche), using a blade homogenizer (Polytron PT3100). Homogenates were ultrasounded, aliquots were made and stored at −80 ° C. Only one aliquot of each sample, containing about 8 mg protein/aliquot, was subjected to lipid extraction. Protein content before lipid extraction was determined by a modified Lowry method (Bio-rad DC Protein Assay).
Margaric acid (C17:0) was added to the samples subjected to lipid extraction as an internal standard and the lipids were extracted with chloroform:methanol (Eggers and Schwudke, 2016). Briefly, 0.75 volumes of the aqueous phase (which already contained the biological sample) were mixed with 2 volumes of chloroform and 1 volume of methanol. This mixture was vortexed for 1 minute and centrifuged at 1000×g for 10 minutes. The lower organic phase was collected and washed with 1 ml of PBS:methanol (1:1,v:v), and the resulting organic phase was dried under argon flow. The film containing the extracted lipids was transmethylated by incubation of the lipid mixture for 90 minutes at 100° C. in 3 ml of methanol:acetyl chloride (10:1, v:v), under an argon atmosphere (Christie, 1993). The resulting fatty acid methyl esters (FAMEs) were extracted with hexane, adding 3 ml of H2O and 1 ml of hexane to the transmethylation reaction, and vortexing the mixture thoroughly. After centrifugation at room temperature (1000×g for 10 min), the upper phase containing the FAMEs was collected and the remaining volume was washed twice with 1 ml of hexane.

MIA-PaCa 2 = assay: IC50 in tumor cell cultures (cell survival, XTT / trypan blue); format: cell-based; conditions: Homo sapiens; MIA-PaCa 2 pancreatic cancer cell line
Description: (§1) Cell survival was analyzed in a Barker chamber using trypan blue vital exclusion staining (Scharlab) or by cell proliferation kit II (Roche). Briefly, the cells were seeded in 96-well plates at a density of 3 x 10^3 cells per well 24 h prior to treatment, and then cultured in the presence or absence of compounds of interest at the concentrations and for the times indicated in the figures. After different times, plaque viable cells were determined by the addition of XTT according to the manufacturers instructions. Cells were incubated at 37° C. in 5% CO2 until a constant color was developed and absorbance was recorded at 495 nm using a microplate reader with a reference wavelength of 650 nm (FLUOstar Omega, BMG LABTECH, Germany).
(§2) The anti-tumor activity of the different metabolites described in FIGS. 8 and 9 was determined by direct treatment with these molecules (HDA or C17:2 ω-6, HTA ω-3 or C17:3 ω-3, HTA ω-6 or C17:3 ω-6, NTA or C19:4 ω-6, NPA or C19:5 ω-3, and HPA or C21:5 ω-3) in tumor cell cultures, on which the IC50 value for each of these compounds was determined (Inhibitory Concentration 50: concentration of study compound that induces death of 50% of the tumor cell population).

A549 = assay: as above; format: cell-based; conditions: A549 human lung adenocarcinoma cell line
Description: as §1, §2

[1] = system: MRC-5 (human fibroblasts); assay: Cell viability by violet crystal staining, 72 hours; format: cell-based; conditions: MRC-5 non-tumor cells
Description: FIG. 15. Effect of 2OHOA sodium salt, C17:1n-9 sodium salt, and OA on cell viability and proliferation of non-tumor cells. Non-tumor cell viability curves (A1-A3) MRC-5 (human fibroblasts); and (B1-B3) mouse astrocytes treated with increasing doses of 2OHOA sodium salt (0-1000 μM) (A1 and B1); OA (0-300 μM) (A2 and B2); and C17:1n-9 sodium salt (0-300 μM) (A3 and B3) for 72 hours. Viability was determined by violet crystal staining.
(§3) In order to evaluate the antiproliferative effect of C17:1n-9, its IC50, which corresponds to the amount of a compound needed to reduce cell viability in vitro by 50%, as well as its effect on the regulation of proteins involved in the mechanism of action of 2OHOA, were determined. […] Upon completion of treatment, IC50 was determined by violet crystal staining technique. […] The IC50 of 2OHOA was 1000 μM for non-tumor cells, MRC-5 and astrocytes.

SF-295 glioma cells = assay: as above; format: cell-based, human; conditions: SF-295, 72 hours
Description: FIG. 14. Effect of 2OHOA sodium salt, OA and C17:1n-9 sodium salt on cell viability and proliferation of glioma cells. […] Viability was determined by violet crystal staining.
as §3

[2] = system: BIP, CHOP, cJun phosphorylation, phosphorylation of Akt, cyclin D3; assay: Western Blot of proliferation and death markers in glioma and non-tumor cell lines; format: cell-based; conditions: glioma cells, oxythiamine 2 mM, 72h
Description: FIG. 16. Analysis of the effect of different fatty acids on markers of proliferation and death in different cell lines.
(§4) To study whether the metabolite C17:1n-9 can participate in the action of 2OHOA, the effect of pre-incubation with oxythiamine on cell survival and 2OHOA-regulated proteins was studied. To do this, the cell survival of different glioma and non-tumor cell lines treated with 2OHOA (400 μM, 72 hours) and pre-incubated or not with 2 mM […] (90 minutes) was analyzed by counting the cells with the vital exclusion stain with trypan blue. In addition, Western-blot 2OHOA-modulated proteins were studied. In glioma cells, a significant decrease in cell survival was observed after incubation with 2 mM oxythiamine for 72 hours.

SF-295 = assay: Cell survival by trypan blue vital exclusion staining, 2OHOA and oxythiamine; format: cell-based, human; conditions: SF-295, 2 mM oxythiamine, 72 hours
Description: FIG. 18. Effect of metabolite C17:1n-9 on the action of 2OHOA. […] Cell viability was determined by vital exclusion staining with trypan blue.
as §4

Row | Formation of the metabolite from its 2-hydroxylated prodrug in the presence of oxythiamine (HEK293T cells) | Compound | IC50 (MIA-PaCa 2) [µM] | IC50 (A549) [µM] | further results
1 |  | CC/C=C\C/C=C\C/C=C\C/C=C\C/C=C\C/C=C\CCC(=O)O [DHA, docosahexaenoic acid, reference compound] |  |  | Levels in the culture medium in the presence of cell culture (uptake) (HEK293T cells; 30 μM, up to 72 h): decreased significantly at 48 and 72 h
2 | inhibited | CCCCC/C=C\C/C=C\CCCCCCC(=O)O [HDA, (8Z,11Z)-heptadeca-8,11-dienoic acid] | 234 ± 18 | 159 ± 10 | 
3 | inhibited | CC/C=C\C/C=C\C/C=C\CCCCCCC(=O)O [HTA n-3, (8Z,11Z,14Z)-heptadeca-8,11,14-trienoic acid] | 216 ± 24 | 166 ± 30 | 
4 | inhibited | CCCCC/C=C\C/C=C\C/C=C\CCCC(=O)O [HTA n-6, (5Z,8Z,11Z)-heptadeca-5,8,11-trienoic acid] | 95 ± 31 | 212 ± 48 | 
5 | inhibited | CC/C=C\C/C=C\C/C=C\C/C=C\C/C=C\CCC(=O)O [NPA, (4Z,7Z,10Z,13Z,16Z)-nonadeca-4,7,10,13,16-pentaenoic acid] | 91 ± 18 | 143 ± 39 | 
6 | inhibited | CCCCC/C=C\C/C=C\C/C=C\C/C=C\CCC(=O)O [NTA, (4Z,7Z,10Z,13Z)-nonadeca-4,7,10,13-tetraenoic acid] | 62 ± 2 | 216 ± 3 | 
7 |  | CCCCCCCC/C=C\CCCCCCCC(=O)[O-].[Na+] [OA, reference compound] |  |  | IC50 [1]: 236 ± 6.73 µM; IC50 (SF-295 glioma cells): 256 ± 5.79 µM
8 |  | Cc1ncc(C[n+]2csc(CCO)c2C)c(=O)[nH]1 [oxythiamine, reference compound] |  |  | Effect on signaling proteins (Western Blot) [2]: in the same sense as 2OHOA, although milder; Cell death (SF-295): 17.35±0.63%; Inhibition of the increase in HPA levels from DHA-H (HEK293T cells; oxythiamine 1 mM): partial inhibition; Inhibition of the increase in HPA levels from DHA-H (HEK293T cells; oxythiamine 10 mM): almost total
